Assay results from patent US20110086759A1, “CHEMICAL COMPOUNDS” (SYNGENTA CROP PROTECTION, INC., priority 2007, published 2011).

Assays:
Format in all cases: in vivo
[1] = test system: Alopecurus myosuroides (ALOMY); assay: Pre-emergence biological efficacy, glasshouse pot test; details: 312 h, pre-emergence, rate 1,000 g/ha, evaluated after 13 days (100=total damage to plant; 0=no damage), read-out: Percentage damage caused to weed species, ALOMY
Summary of the method: (§1)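 Damage was rated on a 0–100 scale 13 days after treatment, with plants kept at 24/16° C, 14 h light and 65% humidity. The pre-emergence spray, at 1000 or 250 g/ha in acetone/water 50:50 with 0.5% Tween 20, was applied one day after sowing.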

[2] = test system: Amaranthus retoflexus (AMARE); assay: as above; details: Amaranthus retroflexus, 312 h; pre-emergence, rate 1,000 g/ha, evaluated after 13 days (100=total damage to plant; 0=no damage); read-out: Percentage damage caused to weed species, AMARE
Summary of the method: as §1

[3] = test system: Echinochloa crus-galli (ECHCG); assay: as above; details: 312 h, pre-emergence, rate 1,000 g/ha, evaluated after 13 days (100=total damage to plant; 0=no damage), read-out: Percentage damage caused to weed species, ECHCG
Summary of the method: as §1

[4] = test system: Ipomea hederaceae (IPOHE); assay: as above; details: Ipomoea hederacea, 312 h; pre-emergence, rate 1,000 g/ha, evaluated after 13 days (100=total damage to plant; 0=no damage); read-out: Percentage damage caused to weed species, IPOHE
Summary of the method: as §1

Setaria faberi (SETFA) [5] = assay: as above; details: 312 h, pre-emergence, rate 1,000 g/ha, evaluated after 13 days (100=total damage to plant; 0=no damage), read-out: Percentage damage caused to weed species, SETFA
Summary of the method: as §1

Solanum nigrum (SOLNI) [6] = assay: as above; details: 312 h, pre-emergence, rate 1,000 g/ha, evaluated after 13 days (100=total damage to plant; 0=no damage), read-out: Percentage damage caused to weed species, SOLNI
Summary of the method: as §1

[7] = test system: Alopecurus myosuroides (ALOMY); assay: Post-emergence biological efficacy, glasshouse pot test; details: 312 h, Rate 1,000 g/ha, post-emergence spray, evaluated after 13 days (100=total damage to plant; 0=no damage to plant), read-out: Percentage damage caused to weed species, post-emergence, ALOMY
Summary of the method: (§2)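 Scored 13 days after spraying on a 0 (no damage) to 100 (total damage) scale. Treatment was a post-emergence spray at 1000 or 250 g/ha, from acetone/water 50:50 plus 0.5% Tween 20, onto 8-day-old plants in soil pots. Growth at 24/16° C, 14 h photoperiod, 65% humidity, watered twice daily.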

[8] = test system: Amaranthus retoflexus (AMARE); assay: as above; details: Amaranthus retroflexus, 312 h; Rate 1,000 g/ha; post-emergence spray; evaluated after 13 days (100=total damage to plant; 0=no damage to plant); read-out: Percentage damage caused to weed species, post-emergence, AMARE
Summary of the method: as §2

[9] = test system: Echinochloa crus-galli (ECHCG); assay: as above; details: 312 h, Rate 1,000 g/ha, post-emergence spray, evaluated after 13 days (100=total damage to plant; 0=no damage to plant), read-out: Percentage damage caused to weed species, post-emergence, ECHCG
Summary of the method: as §2

[10] = test system: Ipomea hederaceae (IPOHE); assay: as above; details: Ipomoea hederacea, 312 h; Rate 1,000 g/ha; post-emergence spray; evaluated after 13 days (100=total damage to plant; 0=no damage to plant); read-out: Percentage damage caused to weed species, post-emergence, IPOHE
Summary of the method: as §2

Setaria faberi (SETFA) [11] = assay: as above; details: 312 h, Rate 1,000 g/ha, post-emergence spray, evaluated after 13 days (100=total damage to plant; 0=no damage to plant), read-out: Percentage damage caused to weed species, post-emergence, SETFA
Summary of the method: as §2

Solanum nigrum (SOLNI) [12] = assay: as above; details: 312 h, Rate 1,000 g/ha, post-emergence spray, evaluated after 13 days (100=total damage to plant; 0=no damage to plant), read-out: Percentage damage caused to weed species, post-emergence, SOLNI
Summary of the method: as §2

SMILES	pest or weed control at 1000 g/ha [1]	pest or weed control at 1000 g/ha [2]	pest or weed control at 1000 g/ha [3]	pest or weed control at 1000 g/ha [4]	pest or weed control at 1000 g/ha (Setaria faberi (SETFA) [5])	pest or weed control at 1000 g/ha (Solanum nigrum (SOLNI) [6])	pest or weed control at 1000 g/ha [7]	pest or weed control at 1000 g/ha [8]	pest or weed control at 1000 g/ha [9]	pest or weed control at 1000 g/ha [10]	pest or weed control at 1000 g/ha (Setaria faberi (SETFA) [11])	pest or weed control at 1000 g/ha (Solanum nigrum (SOLNI) [12])
COC(=O)c1nc(C2CC2)nc(N(C)Cc2ccc(C(F)(F)F)cc2)c1Cl [Compound 5-77, 5-Chloro-2-cyclopropyl-6-methoxycarbonyl-4-[N-methyl-N-(4-trifluoromethyl-phenyl)methyl-amino]pyrimidine]	0%	90%	0%	20%	0%	20%	20%	100%	40%	100%	50%	100%
COC(=O)c1nc(C2CC2)nc(N(C)Cc2cccc(OC)c2)c1Cl [Compound 5-79, 5-Chloro-2-cyclopropyl-6-methoxycarbonyl-4-[N-(3-methoxy-phenylmethyl)-N-methyl-amino]-pyrimidine]	0%	70%	0%	50%	0%	40%	0%	100%	0%	70%	30%	80%
COC(=O)c1nc(C2CC2)nc(N(C)Cc2ccc(OC)cc2)c1Cl [Compound 5-80, 5-Chloro-2-cyclopropyl-6-methoxycarbonyl-4-[N-(4-methoxy-phenyl)methyl-N-methyl-amino]-pyrimidine]	0%	100%	0%	60%	20%	30%	20%	100%	50%	100%	80%	100%
COC(=O)c1nc(C2CC2)nc(N(C)Cc2ccc(N)cc2)c1Cl [Compound 5-86, 4-[N-(4-aminophenylmethyl)-N-methyl-amino]-5-chloro-2-cyclopropyl-6-methoxycarbonyl-pyrimidine]	40%	100%	50%	100%	30%	100%	40%	100%	70%	100%	90%	90%
COC(=O)c1nc(C2CC2)nc(N(C)Cc2ccccc2[N+](=O)[O-])c1Cl [Compound 5-90, 5-Chloro-2-cyclopropyl-6-methoxycarbonyl-4-[N-methyl-N-(2-nitrophenylmethyl)-amino]pyrimidine]	20%	100%	30%	90%	30%	90%	50%	100%	70%	100%	90%	90%
COC(=O)c1nc(C2CC2)nc(N(C)Cc2cccc([N+](=O)[O-])c2)c1Cl [Compound 5-91, 5-Chloro-2-cyclopropyl-6-methoxycarbonyl-4-[N-methyl-N-(3-nitrophenylmethyl)-amino]pyrimidine]	10%	70%	0%	30%	10%	60%	20%	100%	30%	80%	40%	80%
COC(=O)c1nc(C2CC2)nc(N(C)Cc2ccc([N+](=O)[O-])cc2)c1Cl [Compound 5-92, 5-Chloro-2-cyclopropyl-6-methoxycarbonyl-4-[N-methyl-N-(4-nitrophenylmethyl)-amino]-pyrimidine]	20%	90%	10%	70%	10%	60%	50%	100%	40%	100%	60%	80%
COC(=O)c1nc(C2CC2)nc(N(C)Cc2c(Cl)cccc2Cl)c1Cl [Compound 5-104, 5-Chloro-2-cyclopropyl-4-[N-(2,6-dichlorophenyl-methyl)-N-methyl-amino]-6-methoxy-carbonylpyrimidine]	0%	30%	0%	40%	0%	10%	0%	60%	0%	70%	20%	60%
COC(=O)c1nc(C2CC2)nc(N(C)Cc2ccc(Cl)c(Cl)c2)c1Cl [Compound 5-105, 5-Chloro-2-cyclopropyl-4-[N-(3,4-dichlorophenyl-methyl)-N-methyl-amino]-6-methoxy-carbonylpyrimidine]	10%	80%	10%	60%	30%	60%	30%	100%	40%	80%	60%	80%
COC(=O)c1nc(C2CC2)nc(N(C)Cc2cc(OC)cc(OC)c2)c1Cl [Compound 5-113, 5-Chloro-2-cyclopropyl-4-[N-(3,5-dimethoxy-phenylmethyl)-N-methyl-amino]-6-methoxycarbonyl-pyrimidine]	0%	70%	0%	60%	0%	10%	10%	80%	10%	70%	30%	70%
